From patent US10557115B2, “Medium containing uridine and N-acetyl-D-mannosamine” (JCR Pharmaceuticals Co., Ltd., priority 2015, dated 2020) come the findings set out here.

The subject of assay [1] is CHO cells for expression of recombinant human FSH. Briefly: Sialic acid content (HPLC peak area) of recombinant human FSH from cells cultured in supplemented medium. The format is cell-based, Chinese hamster. Particulars: for relative value of sialic acid peak area of recombinant human FSH (basic medium = 100%): basic medium added with 8 mM N-acetyl-D-mannosamine and/or 3 mM uridine, 5 days at 37° C., FIG. 9. The procedure: The above master cells stored in liquid nitrogen were quickly thawed in 37° C. thermostatic bath, and suspended in a basic medium, the CD Opti CHO™ medium (Life Technologies Inc.) supplemented with 2 mM of GlutaMAX (Life Technologies Inc.) and 1×HT Supplement (Life Technologies Inc.). Then, the cells were precipitated by centrifugation and corrected. The corrected cells were suspended with the basic medium to obtain cell suspension, and the number of the living cells was counted. The cell suspension was diluted to the living cell density of 2×10^5 cells/mL with the basic medium.
The cell suspension was dispensed into culture vessels by 120 mL each to generate four groups and incubated for five days at 37° C. under 5% CO2. This incubation was conducted by using Bio Jr. 8 (100 mL×8 vessels culture device, AbleBiott Inc.), and pH of the medium was kept at 6.9 and the dissolved oxygen level (DO) was kept at 40% during the incubation. […]
50 μL of the concentrated solution of the purified recombinant human FSH of each of the groups was alkali-treated with 0.3M sodium hydroxide at 37° C. for 30 minutes, subsequently was acid-treated with 0.05M hydrochloric acid at 80° C. for 60 minutes to make glycans composing recombinant human FSH hydrolyzed to monosaccharides. Then, the solution were added with fluorescence reagent (a solution containing 9.6 mM of 1,2-diamino-4,5-methylene-dioxybenzene dihydrochloride, 24 mM of sodium hydrosulfite, and 1M of 2-mercaptoethanol), and heated at 50° C. for 150 minutes to fluorescently label the monosaccharides obtained by the hydrolysis. […] As a standard, sialic acid was concurrently treated with the same manner, and the standard of fluorescence-labeled sialic acid was obtained. The standard thus obtained was analyzed by HPLC using COSMOSIL 5C18-PAQ as reverse phase column, and the elution time of sialic acid, the time when the peak corresponding to sialic acid appeared, was measured. And each of the sample solutions was analyzed by HPLC and the area of peak corresponding to sialic acid was calculated. […]

Assay [2] relates to CHO cells for expression of recombinant human erythropoietin. Briefly: Capillary electrophoresis isoform analysis of recombinant human erythropoietin from cells cultured in supplemented medium. The format is cell-based, Chinese hamster. Conditions: basic medium added with 8 mM N-acetyl-D-mannosamine and/or 3 mM uridine, 5 days at 37° C., FIG. 3; for ratio of type I isoform to sum of all detected isoforms of recombinant human erythropoietin: type I = lowest isoelectric point. As for the experimental part: The above master cells stored in liquid nitrogen were quickly thawed in 37° C. thermostatic bath, and suspended in a basic medium, the CD Opti CHO™ medium (Life Technologies Inc.) supplemented with 2 mM of GlutaMAX (Life Technologies Inc.) and 1×HT Supplement (Life Technologies Inc.). Then, the cells were precipitated by centrifugation and corrected. The corrected cells were suspended with the basic medium to obtain the cell suspension, and the number of the living cells was counted. The cell suspension was diluted to the living cell density of 2×10^5 cells/mL with the basic medium.
The cell suspension was dispensed into culture vessels by 120 mL each to generate four groups and incubated for five days at 37° C. under 5% CO2. This incubation was conducted by using Bio Jr.8 (100 mL×8 vessels culture device, AbleBiott Inc.), and pH of the medium was kept at 6.9 and the dissolved oxygen level (DO) was kept at 40% during the incubation. At this time, uridine and N-acetyl-D-mannosamine were added at the concentration as shown in Table 1 to each of the groups (group 1 to group 4). The incubation was conducted four times for each of the groups.
On the fifth day of the incubation above, 10 mL of each of the cultures was corrected to centrifuging tubes and centrifuged at 3,000 rpm for 10 minutes. Then, the culture supernatants were corrected and diluted 1.5 times with purified water. Then, 7.5 mL of each of these diluted culture supernatants was loaded on Capto™ adhere column, a multi-modal anion exchange resin (column volume: 1 mL, GE Healthcare Bioscience Inc.) pre-equilibrated with 20 mM Tris buffer (pH 7.5). After washing the column with 5 column volumes of 20 mM Tris buffer (pH 7.5), recombinant human erythropoietin adsorbed by the resin was eluted with 20 mM Tris buffer (pH 7.5) containing 200 mM of NaCl to obtain eluted fractions. And the eluted fractions were concentrated by Amicon Ultra-4 Centrifugal Filter Units (molecular weight cut off: 3 kDa, Millipore Inc.) to 100 μL of volume.
The concentrated solution of each of the groups was subjected capillary electrophoresis by using Bare Fused-Silica Capillary (50 μm ID, 375 μm OD, 50 cm length, Beckmann Coulter Inc.) attached to capillary electrophoresis system (P/ACE™ system MDQ, Beckmann Coulter Inc.). In doing this, 10 mM Tris buffer (pH 4.5) containing 10 mM of sodium chloride, 500 mM of sodium acetate, 7 M of urea, and 2.5 mM of putrescine was used as an electrophoresis buffer, and the electrophoresis was performed at constant current of 24 μA for 50 minutes. Further the wave length at 214 nm was monitored by an UV detector to detect the recombinant human erythropoietin subjected to the electrophoresis.
The isoform showing the lowest isoelectric point among the isoforms showing different isoelectric points when detected by the capillary electrophoresis above was named as type I, and further the isoforms were named as type II and type III in ascending order of isoelectric point. The ratios of type I, type II, and type III to sum of all of detected isoforms were calculated, respectively. And the ratios were compared between the groups. The ratios of type I, type II, and type III in the recombinant human erythropoietin of the group 1 obtained by culturing the cells in the basic medium were about 0.7%, about 5%, and about 15%, respectively (FIG. 3).

Consider `CC(=O)N[C@@H]1C(O)O[C@H](CO)[C@@H](O)[C@@H]1O` (stereo partly drawn) [N-acetyl-D-mannosamine], for which the “relative value of sialic acid peak area of recombinant human FSH (basic medium = 100%)” value in assay [1] is “about 100%”. In assay [2], the “ratio of type II isoform to sum of all detected isoforms of recombinant human erythropoietin” value was “about 7%”, the “ratio of type III isoform to sum of all detected isoforms of recombinant human erythropoietin” value is “about 20.7%” and the “ratio of type I isoform to sum of all detected isoforms of recombinant human erythropoietin” value is recorded as “about 1.2%”.
In the case of `O=c1ccn([C@@H]2O[C@H](CO)[C@@H](O)[C@H]2O)c(=O)[nH]1` [uridine], the “increase of average number of sialic acid molecules per molecule of recombinant human FSH versus basic medium” value in assay [1] (basic medium added with 3 mM uridine, or with 8 mM N-acetyl-D-mannosamine and 3 mM uridine) was “about 10%”. The “relative value of sialic acid peak area of recombinant human FSH (basic medium = 100%)” value in assay [1] is listed as “about 112%”. Further, in assay [2], the “ratio of type II isoform to sum of all detected isoforms of recombinant human erythropoietin” value is listed as “about 3.5%”, the “ratio of type III isoform to sum of all detected isoforms of recombinant human erythropoietin” value is “about 13%” and the “ratio of type I isoform to sum of all detected isoforms of recombinant human erythropoietin” value was “about 0.3%”.
